Test system: cherries
Assay: Cherry firmness after cold storage, pre-harvest application
Type: in vivo
Details: after 12 days of cold storage (33° F.); sprayed 2 weeks before harvest; calcium chloride 0.5% w/v, Formulation III 10% (v/v)
Protocol: 1. Effect of Pre-Harvest Application of Matrix III and Calcium on Firmness. The effect of the Formulation III (Matrix III, see EXAMPLE 15) on cherry firmness was determined in the lab with a firmness meter. Firmness is a function of water content. […] After drying, a 10% (v/v) dilution of Formulation III was applied to half of the trees. […] Increased firmness was also observed in a larger orchard trial with ‘Bing’ and ‘Van’ cherries.

Compound: [Ca+2].[Cl-].[Cl-] [calcium chloride, Calcium chloride]
- firmness: 277.1 mg/mm^2
